Test results as given in patent US11534398B2, “Inhaled preparation of isoglycyrrhizic acid or salt thereof, and use in preparing drugs for treating respiratory system diseases” (priority 2016, dated 2022).
“And” between values parts separate entries of the source, which are not always exact repeats. Equal entries are not always repeated. Where two headings read alike, the source gives them in different places. Marks after values point to notes of the source that are not given here.

Columns and labels:
[1] = Particle size of micronized magnesium isoglycyrrhizinate; assay type: physicochemical; details: micronized active ingredient
Text: The magnesium isoglycyrrhizinate was micronized to obtain samples having the following different particle size ranges.

[2] = test system: tracheal secretion in mice; test: Mouse phenol red excretion assay (tracheal secretion); assay type: in vivo, ICR mice; details: 1.0 g/kg/d*6 d, i.g. 6 d
Description: 50 male ICR mice, weighing about 21 g, were randomly divided into 5 groups: control group 1 (normal saline, NS), control group 2 (normal saline, NS), positive control group (ammonium chloride, 1 g/kg), drug group 1 (0.2 mg/ml of magnesium isoglycyrrhizinate liquid preparation for use in nebulizers, nebulizing for 30 min), drug group 2 (0.2 mg/ml of magnesium isoglycyrrhizinate liquid preparation for use in nebulizers, nebulizing for 15 min). The mice in control group 1 and the positive control group were intragastrically administered with the corresponding drugs (0.1 ml/10 g), the mice in control group 2 and the drug group 1 were aerosolizing administered with a nebulizer for 30 min, while the mice in drug group 2 were 15 min. The administration frequency was once a day for 6 consecutive days. Before the 6th administration, the mice were starved for 16-18 hours, only allowed for drinking water. After 30 minutes of administration, i.p. 1% phenol red physiological in saline solution 0.2 ml/10 g was injected and 30 minutes later, the mice were killed by cervical dislocation. […] Among them, each drug group was compared with the control group 2, ^ΔΔp<0.01.

COPD rats [3] = test: White blood cell count and cell classified comparison in BALF of COPD rats; assay type: in vivo, SD rats
Description: (§1) After modeling chronic obstructive pulmonary disease model induced by cigarette smoke inhalation, male SD rats were randomly divided into 6 groups according to the body weight: high dose tracheal instillation group (1.67 mg/ml of magnesium isoglycyrrhizinate, 100 μl/rat), low dose tracheal instillation group (1.67 mg/ml, 25 μl/rat), aerosolizing inhalation group, model group and blank control group, 10 rats in each group. During the intervention period, except that the control group and the model group were given normal saline, the other groups were successive administered every day, lasted for 15 days. During the administration period, the administration groups continued to be given with smoke stimulation after 30 minutes of administration, and the mental state, breathing, activity, hair luster, weight gain of the rats were recorded every day. 12 hour after the last administration, whole blood was taken from the rat eye for determination of white blood cell count and cell classified comparison. […] The right lung was ligated at the right main branch, and the left lung was lavaged with normal saline 2 ml×3 times. The recovery rate was about 80%. The bronchoalveolar lavage fluid (BALF) was prepared for the determination of white blood cell count and classified comparison (white blood cells, neutrophils, lymphocytes and monocytes). Finally, the right lung of rat was fixed with 10% formalin and HE stained, lung injury was observed under microscope, and pathological lesions were scored. All scores were accumulated, and the average score of each animal in each group was calculated (mean±SD).
(§2) The experimental result data was expressed in the form of mean±SD. One-way ANOVA combined with Post-Hoc (LSD method) was used to analyze the differences between groups. Statistical significance was expressed as a P value of less than 0.05. The model group was compared with the blank control group, #p<0.05, #p<0.01; each administration group of magnesium isoglycyrrhizinate was compared with the model group, *p<0.05, **p<0.01.

COPD rats [4] = test: General symptoms of COPD rats (cigarette smoke inhalation model); assay type: in vivo, SD rats; details: high dose and low dose tracheal infusion and nebulization, versus model group
Description: as §1, with “The recovery rate was about 80%. The bronchoalveolar lavage fluid (BALF) was prepared for the determination of white blood cell count and classified comparison (white blood cells, neutrophils, lymphocytes and monocytes).” left out

[5] = intravenous, 30.0 mg/kg, cited from earlier work
[6] = Body weight of COPD rats (cigarette smoke inhalation model); assay type: in vivo, SD rats; details: in g (unit assumed)
Description: as §1, §2

COPD rats [7] = test: Pathological score of lung of COPD rats (HE staining); assay type: in vivo, SD rats; design: key to Pathological score, Comprehensive score / Pathological score, Emphysema / Pathological score, Inflammatory cell infiltration / Pathological score, Bronchial mucus secretion: lesion score 0 = none, 0.5 slight … 4 = very severe; group mean±SD
Description: as §1
Scoring indicators: (1) whether there was mucus and cell blockage in the small airway cavity; (2) whether the small airway epithelium had necrotic erosion; (3) small airway epithelial cells goblet cell metaplasia; (4) small airway epithelial cell squamous metaplasia; (5) small airway wall inflammation cell infiltration; (6) small airway wall fibrous connective tissue hyperplasia; (7) small airway wall smooth muscle hyperplasia; (8) small airway wall pigmentation; and (9) lung emphysema. Lesion score: according to the degree from light to heavy lesions, it was quantified as slight or very small amount for “0.5 point”, mild or small amount for “1 point”, moderate or more quantity amount for “2 points”, severe or plenty amount for “3 points”, very severe or large amount for “4 points”, and no obvious lesions for 0 point.
as §2

COPD rats [8] = test: White blood cell count and cell classified comparison in blood of COPD rats; assay type: in vivo, SD rats
Description: as §1, §2

[9] = Pharmacokinetic evaluation after inhalation/intragastric administration to rats; assay type: in vivo, SD rats; details: for Cmax/Dose: in (µg/L)/(mg/kg); for AUC(0-t)/Dose: in (µg·h/L)/(mg/kg); for MRT last: read-out: MRT(0-t); for half-life: read-out: t½ z (converted)
Description: Eight healthy male SD rats, weighing 223-252 g, were fed with standard formula granule feed of rats on time every day. The rats were fasted for 16 h before the experiment, and were refeeded at 4 h after the administration. Drinking water was free before, after and during the experiment. The rats were randomly divided into two groups, 4 rats in each group, and each rat was inhalation administrated with a single dose of magnesium isoglycyrrhizinate liquid preparation for use in nebulizers (2.5 mg/mL) and intragastric administrated with magnesium isoglycyrrhizinate inhaled preparation (5.0 mg/mL, the amount of isoglycyrrhizic acid is 4.486 mg/mL) respectively. Each rat in the inhalation administration group was given 200 μL of magnesium isoglycyrrhizinate liquid preparation for use in nebulizers (the actual dose given to the rat was 2.24-2.49 mg/kg). The dose in the intragastric administration group was 10.0 mg/kg. 0.2-0.3 mL of blood was taken from the fundus venous plexus before administration (0 h) and 0.0833 h, 0.25 h, 0.5 h, 1 h, 2 h, 4 h, 6 h, 8 h, 10 h, 24 h after administration. EDTA-K2 was used for anticoagulation, and the plasma was centrifuged. Then 50 μL was accurately measured, added with 10 μL internal standard solution to vortex and mixed, then added with 200 μL methanol, and mixed in high speed vortex mixer for 3 min, centrifuged for 10 min (4° C., 13000 rpm). The supernatant was collected, and 100 μL thereof was transferred to a 96-well plate. 50 μL of ultrapure water was added, vortexed, LC-MS/MS was used for detection, and the chromatogram was recorded.

[10] = aerosolizing inhalation, 0.4 mg/ml, 30 min
[11] = high dose tracheal instillation, 1.67 mg/ml, 100 μl
[12] = low dose tracheal instillation, 1.67 mg/ml, 25 μl
[13] = male, SD, rat, plasma, inhaled or intranasal, inhalation, 2.4 mg/kg
[14] = male, SD, rat, plasma, po, intragastric, 10 mg/kg

Q: Which results are given for `CC1(C)[C@@H](O[C@H]2O[C@H](C(=O)[O-])[C@@H](O)[C@H](O)[C@H]2O[C@@H]2O[C@H](C(=O)[O-])[C@@H](O)[C@H](O)[C@H]2O)CC[C@]2(C)[C@H]3C(=O)C=C4[C@H]5C[C@@](C)(C(=O)O)CC[C@]5(C)CC[C@@]4(C)[C@]3(C)CC[C@@H]12.[Mg+2]` [Large particle size, magnesium isoglycyrrhizinate]?
A: X10 [1]: 1.47 μm; X50 [1]: 5.75 μm

Q: Which results are given for `CC1(C)[C@@H](O[C@H]2O[C@H](C(=O)[O-])[C@@H](O)[C@H](O)[C@H]2O[C@@H]2O[C@H](C(=O)[O-])[C@@H](O)[C@H](O)[C@H]2O)CC[C@]2(C)[C@H]3C(=O)C=C4[C@H]5C[C@@](C)(C(=O)O)CC[C@]5(C)CC[C@@]4(C)[C@]3(C)CC[C@@H]12.[Mg+2]` [Medium particle size, magnesium isoglycyrrhizinate]?
A: X10 [1]: 1.38 μm; X50 [1]: 5.08 μm

Q: For `CC1(C)[C@@H](O[C@H]2O[C@H](C(=O)[O-])[C@@H](O)[C@H](O)[C@H]2O[C@@H]2O[C@H](C(=O)[O-])[C@@H](O)[C@H](O)[C@H]2O)CC[C@]2(C)[C@H]3C(=O)C=C4[C@H]5C[C@@](C)(C(=O)O)CC[C@]5(C)CC[C@@]4(C)[C@]3(C)CC[C@@H]12.[Mg+2]` [Small particle size, magnesium isoglycyrrhizinate], which X10 [1] is on record?
A: 0.58 μm

Q: And the X50 [1]?
A: 2.03 μm

Q: With `Cl.N` [ammonium chloride] as the compound, how does the “Amount of phenol red excretion” value [2] read?
A: 0.5924 ± 0.3781 µg/mL

Q: Which results are given for `CC1(C)[C@@H](O[C@H]2O[C@H](C(=O)[O-])[C@@H](O)[C@H](O)[C@H]2O[C@@H]2O[C@H](C(=O)[O-])[C@@H](O)[C@H](O)[C@H]2O)CC[C@]2(C)[C@H]3C(=O)C=C4[C@H]5C[C@@](C)(C(=O)O)CC[C@]5(C)CC[C@@]4(C)[C@]3(C)CC[C@@H]12.[Mg+2]` [magnesium isoglycyrrhizinate, magnesium (18α,20β)-20-carboxy-11-oxo-30-norolean-12-ene-3β-yl-2-O-β-D-pyranoglucuronyl-α-D-pyranoglucuronate]?
A: Neutrophil count (COPD rats [3]; [10]): 57.83 ± 20.78 10/μl; Percentage of neutrophils (COPD rats [3]; [10]): 38.83 ± 21.02%; White blood cell count (COPD rats [3]; [10]): 170.33 ± 55.17 10/μl; Neutrophil count (COPD rats [3]; [11]): 89.88 ± 21.57* 10/μl; Percentage of neutrophils (COPD rats [3]; [11]): 48.89 ± 9.69%; White blood cell count (COPD rats [3]; [11]): 184.38 ± 32.15 10/μl; Neutrophil count (COPD rats [3]; [12]): 66.38 ± 25.46 10/μl; Percentage of neutrophils (COPD rats [3]; [12]): 38.08 ± 12.86%; White blood cell count (COPD rats [3]; [12]): 172.50 ± 26.52 10/μl; General symptoms of COPD rats (COPD rats [4]): relieved compared with the model group; Cmax ([5]; N = 6, literature): 354500 ng/mL; AUC(0-t) ([5]; literature): 209591 ng·h/mL; AUC(0-t)/Dose ([5]; literature): 6986; AUC(0-∞) ([5]; literature): 212295 ng·h/mL; CLz/F ([5]; literature): 2355 mL/min/kg; Cmax/Dose ([5]; literature): 11817; MRT(0-t) ([5]; literature): 1.71 h; Tmax ([5]; literature): 5 min; t1/2 z ([5]; literature): 2.06 h; Body weight, End weight [6, 10]: 360.11 ± 18.84**; Body weight, Initial weight [6, 10]: 319.22 ± 10.43**; Body weight, End weight [6, 11]: 358.20 ± 16.17**; Body weight, Initial weight [6, 11]: 324.6 ± 12.22**; Body weight, End weight [6, 12]: 350.80 ± 27.79**; Body weight, Initial weight [6, 12]: 317.60 ± 24.23**; Pathological score, Bronchial mucus secretion (COPD rats [7]; [10]): 0.278 ± 0.363; Pathological score, Comprehensive score (COPD rats [7]; [10]): 0.89 ± 0.65*; Pathological score, Emphysema (COPD rats [7]; [10]): 0.222 ± 0.441; Pathological score, Inflammatory cell infiltration (COPD rats [7]; [10]): 0.389 ± 0.333**; Pathological score, Bronchial mucus secretion (COPD rats [7]; [11]): 0.050 ± 0.158**; Pathological score, Comprehensive score (COPD rats [7]; [11]): 0.90 ± 0.52*; Pathological score, Emphysema (COPD rats [7]; [11]): 0.300 ± 0.422; Pathological score, Inflammatory cell infiltration (COPD rats [7]; [11]): 0.450 ± 0.550*; Lung pathology of COPD rats (in words) (COPD rats [7]; high dose, low dose tracheal infusion and aerosolizing inhalation groups): significantly reduce lung inflammation, improve bronchial wall function, reduce bronchial mucus secretion and improve emphysema; Pathological score, Bronchial mucus secretion (COPD rats [7]; [12]): 0.200 ± 0.350; Pathological score, Comprehensive score (COPD rats [7]; [12]): 0.80 ± 0.50*; Pathological score, Emphysema (COPD rats [7]; [12]): 0.150 ± 0.337; Pathological score, Inflammatory cell infiltration (COPD rats [7]; [12]): 0.400 ± 0.394**; Neutrophil count (COPD rats [8]; [10]): 123.67 ± 23.24** 10/μl; Percentage of neutrophils (COPD rats [8]; [10]): 11.05 ± 1.61** %; White blood cell count (COPD rats [8]; [10]): 1123.33 ± 170.54 10/μl; Neutrophil count (COPD rats [8]; [11]): 153.25 ± 40.12* 10/μl; Percentage of neutrophils (COPD rats [8]; [11]): 11.31 ± 3.55* %; White blood cell count (COPD rats [8]; [11]): 1395.13 ± 270.32 10/μl; Neutrophil count (COPD rats [8]; [12]): 155.13 ± 26.25* 10/μl; Percentage of neutrophils (COPD rats [8]; [12]): 13.80 ± 2.24* %; White blood cell count (COPD rats [8]; [12]): 1135.13 ± 155.73 10/μl; CLz/F ([9]; inhalation, 2.4 mg/kg): 3.25 mL/min/kg and 3.25 ± 1.72 mL/min/kg; t½ z ([9]; inhalation, 2.4 mg/kg): 2.13 ± 0.69 h; Cmax/Dose ([9]; inhalation, 2.4 mg/kg): 1315 and 1315 ± 306; AUC(0-t)/Dose ([9]; inhalation, 2.4 mg/kg): 6108 and 6108 ± 2577; CLz/F ([9]; intragastric, 10 mg/kg): 2700 mL/min/kg; Cmax/Dose ([9]; intragastric, 10 mg/kg): 2.73; AUC(0-t)/Dose ([9]; intragastric, 10 mg/kg): 8.98; Cmax ([9]; male, SD, rat, inhaled or intranasal, inhalation, liquid preparation for nebulizers 2.5 mg/mL, 200 μL, 2.4 mg/kg, plasma): 3110 ng/mL; AUC(0-inf) [9, 13]: 14600 ng·h/mL; AUC(0-t) [9, 13]: 14600 ng·h/mL; Tmax [9, 13]: 0.81 h; MRT last [9, 13]: 3.52 h; half-life [9, 13]: 2.13 h; bioavailability ([9]; male, SD, rat, plasma, inhaled, inhalation compared with intravenous administration (literature), read-out: Relative F %): 87%; AUC(0-inf) [9, 14]: 102 ng·h/mL; AUC(0-t) [9, 14]: 89.8 ng·h/mL; Tmax [9, 14]: 1.75 h; MRT last [9, 14]: 2.35 h; half-life [9, 14]: 1.88 h; Cmax ([9]; male, SD, rat, po, intragastric, 5.0 mg/mL, 10 mg/kg, plasma): 27.3 ng/mL
